Experimental data: patent US20060223996A1, “IL-12 modulatory compounds” (Synta Pharmaceuticals Corp., priority 2004, published 2006)

System: IL-12
Assay: Human in vitro assay: inhibition of IL-12 production in IFNγ/LPS- or IFNγ/SAC-stimulated human PBMC or THP-1 cells (ELISA)
Format: cell-based
Details: read-out: IC50 Range (representative in vitro IC50 data)
Method in brief: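 PBMC (5×10^5 cells/well) primed with IFNγ 30 U/mL for 22 h then LPS 1 μg/mL, or IFNγ 100 U/mL then SAC 0.01%; THP-1 primed with IFNγ 100 U/mL for 22 h then SAC 0.025%, with compound in 0.25% DMSO. Supernatant IL-12 p70/p40 measured by sandwich ELISA after 18 h; IC50 derived; viability by MTS.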

Structure (SMILES) | IC50 [µM]
Cc1[nH]c2ccc(NC(=O)c3cc(OCCC#N)nc(N4CCOCC4)n3)cc2c1C [Compound 250, 6-(2-cyanoethoxy)-N-(2,3-dimethyl-1H-indol-5-yl)-2-morpholinopyrimidine-4-carboxamide] | < 1
COc1cccc(NC(=O)c2cc(OCCN3CCOCC3)nc(N3CCOCC3)n2)c1 [Compound 279, 2-Morpholin-4-yl-6-(2-morpholin-4-yl-ethoxy)-pyrimidine-4-carboxylic acid (3-methoxy-phenyl)-amide] | ≥ 1
CNc1ccc(NC(=O)c2cc(OCCN3CCOCC3)nc(N3CCOCC3)n2)cc1C [Compound 289, 2-Morpholin-4-yl-6-(2-morpholin-4-yl-ethoxy)-pyrimidine-4-carboxylic acid (3-methyl-4-methylamino-phenyl)-amide] | ≥ 1
COCCN(C)c1cc(C(=O)Nc2cccc(C#CC(C)(C)O)c2)nc(N2CCOCC2)n1 [Compound 226, 6-[(2-Methoxy-ethyl)-methyl-amino]-2-morpholin-4-yl-pyrimidine-4-carboxylic acid [3-(3-hydroxy-3-methyl-but-1-ynyl)-phenyl]-amide] | ≥ 1
O=C(Nc1ccnc(Cl)c1)c1cc(OCCN2CCOCC2)nc(N2CCOCC2)n1 [Compound 149, 2-Morpholin-4-yl-6-(2-morpholin-4-yl-ethoxy)-pyrimidine-4-carboxylic acid (2-chloro-pyridin-4-yl)-amide] | ≥ 1
O=C(Nc1ccc2[nH]c3c(c2c1)CCCC3)c1cc(N2CCC(O)CC2)nc(N2CCOCC2)n1 [Compound 184, 6-(4-Hydroxy-piperidin-1-yl)-2-morpholin-4-yl-pyrimidine-4-carboxylic acid (6,7,8,9-tetrahydro-5H-carbazol-3-yl)-amide] | < 1
COC(=O)NCCOc1cc(C(=O)Nc2ccc3[nH]c(C)c(C)c3c2)nc(N2CCOCC2)n1 [Compound 294, {2-[6-(2,3-Dimethyl-1H-indol-5-ylcarbamoyl)-2-morpholin-4-yl-pyrimidin-4-yloxy]-ethyl}-carbamic acid methyl ester] | < 1
CON(C)c1cc(C(=O)Nc2ccc3[nH]c(C)c(C)c3c2)nc(N2CCOCC2)n1 [Compound 193, N-(2,3-dimethyl-1H-indol-5-yl)-6-(methoxy(methyl)amino)-2-morpholinopyrimidine-4-carboxamide] | < 1
Cc1[nH]c2ccc(NC(=O)c3cc(NCC(N)=O)nc(N4CCOCC4)n3)cc2c1C [Compound 104, 6-(Carbamoylmethyl-amino)-2-morpholin-4-yl-pyrimidine-4-carboxylic acid (2,3-dimethyl-1H-indol-5-yl)-amide] | < 1
O=C(Nc1cc(OCCN2CCOCC2)nc(N2CCOCC2)n1)Nc1cccc2c(O)cccc12 [Compound 138, 1-(5-Hydroxy-naphthalen-1-yl)-3-[2-morpholin-4-yl-6-(2-morpholin-4-yl-ethoxy)-pyrimidin-4-yl]-urea] | ≥ 1
CC1CCc2ccc(NC(=O)c3cc(OCCN4CCOCC4)nc(N4CCOCC4)n3)cc2N1 (centres unmarked) [Compound 299, 2-Morpholin-4-yl-6-(2-morpholin-4-yl-ethoxy)-pyrimidine-4-carboxylic acid (2-methyl-1,2,3,4-tetrahydro-quinolin-7-yl)-amide] | ≥ 1
O=C(Nc1ccc2cc[nH]c2c1)c1cc(OCCN2CCOCC2)nc(N2CCOCC2)n1 [Compound 275, 2-Morpholin-4-yl-6-(2-morpholin-4-yl-ethoxy)-pyrimidine-4-carboxylic acid (1H-indol-6-yl)-amide] | < 1
COCCN(C)c1cc(C(=O)Nc2ccc3c(c2)N(C)CC3)nc(N2CCOCC2)n1 [Compound 211, 6-((2-methoxyethyl)(methyl)amino)-N-(1-methylindolin-6-yl)-2-morpholinopyrimidine-4-carboxamide] | < 1
COCCN(C)c1cc(C(=O)Nc2cc(C)cc(C)n2)nc(N2CCOCC2)n1 [Compound 238, 6-[(2-Methoxy-ethyl)-methyl-amino]-2-morpholin-4-yl-pyrimidine-4-carboxylic acid (4,6-dimethyl-pyridin-2-yl)-amide] | ≥ 1
O=C(Nc1cc(OCCN2CCOCC2)nc(N2CCOCC2)n1)Nc1ccccc1Br [Compound 129, 1-(2-Bromo-phenyl)-3-[2-morpholin-4-yl-6-(2-morpholin-4-yl-ethoxy)-pyrimidin-4-yl]-urea] | ≥ 1
Cc1[nH]c2ccc(NC(=O)c3cc(OCCS(C)(=O)=O)nc(N4CCOCC4)n3)cc2c1C [Compound 249, N-(2,3-dimethyl-1H-indol-5-yl)-6-(2-(methylsulfonyl)ethoxy)-2-morpholinopyrimidine-4-carboxamide] | ≥ 1
Cc1[nH]c2ccc(NC(=O)c3cc(NCC(=O)N4CCCC4)nc(N4CCOCC4)n3)cc2c1C [Compound 108, 2-Morpholin-4-yl-6-(2-oxo-2-pyrrolidin-1-yl-ethylamino)-pyrimidine-4-carboxylic acid (2,3-dimethyl-1H-indol-5-yl)-amide] | < 1
Cc1cccc(NC(=O)Nc2cc(OCCc3ccccn3)nc(N3CCOCC3)n2)c1 [Compound 67, 1-[2-Morpholin-4-yl-6-(2-pyridin-2-yl-ethoxy)-pyrimidin-4-yl]-3-m-tolyl-urea] | < 1

Structure (SMILES) | IC50 [µM]
O=C(Nc1ccc2ccccc2c1)c1cc(OCCc2ccccn2)nc(N2CCOCC2)n1 [Compound 37, 2-Morpholin-4-yl-6-(2-pyridin-2-yl-ethoxy)-pyrimidine-4-carboxylic acid naphthalen-2-ylamide] | ≥ 1
O=C(Nc1cccc(-n2cccc2)c1)c1cc(OCCN2CCOCC2)nc(N2CCOCC2)n1 [Compound 285, 2-Morpholin-4-yl-6-(2-morpholin-4-yl-ethoxy)-pyrimidine-4-carboxylic acid (3-pyrrol-1-yl-phenyl)-amide] | < 1
Cc1ccc(NC(=O)c2cc(N3CCOCC3)nc(N3CCOCC3)n2)cc1C [Compound 51, 2,6-Di-morpholin-4-yl-pyrimidine-4-carboxylic acid (3,4-dimethyl-phenyl)-amide] | < 1
Cc1cccc(NC(=O)c2cc(OCCc3ccccn3)nc(N3CCOCC3)n2)c1 [Compound 5, 2-Morpholin-4-yl-6-(2-pyridin-2-yl-ethoxy)-pyrimidine-4-carboxylic acid m-tolylamide] | < 1
O=C(Nc1cccc(Cl)c1)c1cc(OCCN2CCOCC2)nc(N2CCOCC2)n1 [Compound 287, 2-Morpholin-4-yl-6-(2-morpholin-4-yl-ethoxy)-pyrimidine-4-carboxylic acid (3-chloro-phenyl)-amide] | ≥ 1
CCN(CC)C(=O)Nc1cccc(NC(=O)c2cc(OCCN3CCOCC3)nc(N3CCOCC3)n2)c1 [Compound 198, N-(3-(3,3-diethylureido)phenyl)-2-morpholino-6-(2-morpholinoethoxy)pyrimidine-4-carboxamide] | ≥ 1
Cc1ccnc(NC(=O)c2cc(OCCc3ccccn3)nc(N3CCOCC3)n2)c1 [Compound 35, 2-Morpholin-4-yl-6-(2-pyridin-2-yl-ethoxy)-pyrimidine-4-carboxylic acid (4-methyl-pyridin-2-yl)-amide] | ≥ 1
Cc1cc(NC(=O)c2cc(OCCN3CCOCC3)nc(N3CCOCC3)n2)no1 [Compound 48, 2-Morpholin-4-yl-6-(2-morpholin-4-yl-ethoxy)-pyrimidine-4-carboxylic acid (5-methyl-isoxazol-3-yl)-amide] | ≥ 1
Cc1cccc(OC(=O)Nc2cc(OCCc3ccccn3)nc(N3CCOCC3)n2)c1 [Compound 83, [2-Morpholin-4-yl-6-(2-pyridin-2-yl-ethoxy)-pyrimidin-4-yl]-carbamic acid m-tolyl ester] | ≥ 1
O=C(Nc1cc(OCCN2CCOCC2)nc(N2CCOCC2)n1)Nc1nc2ccc(Cl)cc2o1 [Compound 135, 1-(6-Chloro-benzooxazol-2-yl)-3-[2-morpholin-4-yl-6-(2-morpholin-4-yl-ethoxy)-pyrimidin-4-yl]-urea] | < 1
COCCN(C)c1cc(C(=O)Nc2cccc(-c3nc(C)no3)c2)nc(N2CCOCC2)n1 [Compound 207, 6-((2-methoxyethyl)(methyl)amino)-N-(3-(3-methyl-1,2,4-oxadiazol-5-yl)phenyl)-2-morpholinopyrimidine-4-carboxamide] | ≥ 1
NS(=O)(=O)c1cccc(NC(=O)c2cc(OCCN3CCOCC3)nc(N3CCOCC3)n2)c1 [Compound 50, 2-Morpholin-4-yl-6-(2-morpholin-4-yl-ethoxy)-pyrimidine-4-carboxylic acid (3-sulfamoyl-phenyl)-amide] | ≥ 1
CN(CCO)c1cc(C(=O)Nc2cccc(-n3cccn3)c2)nc(N2CCOCC2)n1 [Compound 315, 6-[(2-Hydroxy-ethyl)-methyl-amino]-2-morpholin-4-yl-pyrimidine-4-carboxylic acid (3-pyrazol-1-yl-phenyl)-amide] | < 1
O=C(Nc1cccc(I)c1)Nc1cc(OCCN2CCOCC2)nc(N2CCOCC2)n1 [Compound 130, 1-(3-Iodo-phenyl)-3-[2-morpholin-4-yl-6-(2-morpholin-4-yl-ethoxy)-pyrimidin-4-yl]-urea] | < 1
CNc1cccc(NC(=O)c2cc(OCCN3CCOCC3)nc(N3CCOCC3)n2)c1 [Compound 280, 2-Morpholin-4-yl-6-(2-morpholin-4-yl-ethoxy)-pyrimidine-4-carboxylic acid (3-methylamino-phenyl)-amide] | < 1
CN1C(=O)C(C)(C)c2cc(NC(=O)c3cc(OCCN4CCOCC4)nc(N4CCOCC4)n3)ccc21 [Compound 219, 2-morpholino-6-(2-morpholinoethoxy)-N-(1,3,3-trimethyl-2-oxoindolin-5-yl)pyrimidine-4-carboxamide] | < 1
COCCN(C)c1cc(C(=O)Nc2ccc(C(C)C)c(C)c2)nc(N2CCOCC2)n1 [Compound 229, 6-[(2-Methoxy-ethyl)-methyl-amino]-2-morpholin-4-yl-pyrimidine-4-carboxylic acid (4-isopropyl-3-methyl-phenyl)-amide] | ≥ 1
